Flash point data for 70 compounds are collected here from a flash point compilation (Sun et al. 2020).

Structures can show the parent of a compound that is named as a salt.

`C=CC(=O)OCC1CO1` (stereo not given) [oxiran-2-ylmethyl prop-2-enoate] displayed a flash point of 61.00 °C. Regarding `C1CO1` [oxirane], the flash point is -18.00 °C. With `O=C1CCCO1` [oxolan-2-one], the flash point stood at 98.00 °C. To `OCC1CCCO1` (stereo not given) [oxolan-2-ylmethanol] belongs 75.00 °C. For the compound `O=C1CCC(=O)O1` [oxolane-2,5-dione], the flash point is 157.00 °C.

`C1CCOC1` [oxolane]: the flash point is -14.00 °C. In turn, `C=CCCC` [pent-1-ene] registered a flash point of -51.00 °C.

In turn, `C=CC=CC` [penta-1,3-diene] came in with a flash point of -28.00 °C. For `CCCC(C)OC(C)=O` (stereo not given) [pentan-2-yl acetate], the flash point was found to be 32.00 °C.

`CCC(O)CC` [pentan-3-ol]: the flash point was 30.00 °C. `NCCCCCN` [pentane-1,5-diamine] gave a flash point of 62.00 °C. Consider `OCCCCCO` [pentane-1,5-diol], for which the flash point came out at 129.00 °C. Turning to `CCC(=O)C(C)=O` [pentane-2,3-dione], the flash point was 19.00 °C. To `CCCCCOC(C)=O` [pentyl acetate] belongs 33.00 °C.

In the case of `CCCCCOC=O` [pentyl formate], the flash point is 26.00 °C. Compound `CCCCCO[N+](=O)[O-]` [pentyl nitrate] had a flash point of 49.00 °C. Consider `CCCCCOC(=O)CC` [pentyl propanoate], for which the flash point came out at 41.00 °C.

For `c1ccc(Oc2ccccc2)cc1` [phenoxybenzene], the flash point turned out to be 115.00 °C. `CC(=O)Oc1ccccc1` [phenyl acetate] had a flash point of 80.00 °C.

For `OCc1ccccc1` [phenylmethanol], the flash point came out at 101.00 °C.

As to `C1CNCCN1` [piperazine], the flash point came to 88.00 °C. For the compound `C=C(C)OC(C)=O` [prop-1-en-2-yl acetate], the flash point amounted to 16.00 °C. The figure for `C=C(C)c1ccccc1` [prop-1-en-2-ylbenzene] is 54.00 °C; for `C=CC` [prop-1-ene] it is -108.00 °C. `C=CC=O` [prop-2-enal] displayed a flash point of -26.00 °C.

`C=CC(=O)O` [prop-2-enoic acid] gave a flash point of 54.00 °C. The figure for `C=CC(=O)Cl` [prop-2-enoyl chloride] is 14.00 °C. `C=CCOC(=O)COCCC(C)C` [prop-2-enyl 2-(3-methylbutoxy)acetate] registered a flash point of 68.00 °C.

As to `C=CCOC(=O)CC(C)C` [prop-2-enyl 3-methylbutanoate], the flash point was found to be 39.00 °C. The figure for `CC(C)N` [propan-2-amine] is -37.00 °C. Compound `CC(C)=O` [propan-2-one] gave a flash point of -18.00 °C.

On to `CC(C)OC(=O)Cc1ccccc1` [propan-2-yl 2-phenylacetate], for which the flash point was determined as 95.00 °C.

`CC(C)OC=O` [propan-2-yl formate] displayed a flash point of -6.00 °C. In turn, `CC(O)CO` (stereo not given) [propane-1,2-diol] yielded a flash point of 99.00 °C. To `CCCS` [propane-1-thiol] belongs -15.00 °C; to `CC(C)S` [propane-2-thiol], -34.00 °C.

As for `CCC(=O)O` [propanoic acid], the flash point came out at 54.00 °C.

Regarding `CCC(=O)OC(=O)CC` [propanoyl propanoate], the flash point was determined as 63.00 °C. Turning to `C=C(C)C(=O)OCCC` [propyl 2-methylprop-2-enoate], the flash point is 30.00 °C. `CCCOC(=O)c1cc(O)c(O)c(O)c1` [propyl 3,4,5-trihydroxybenzoate] came in with a flash point of 187.00 °C. As to `CCCOC(C)=O` [propyl acetate], the flash point was 14.00 °C. The figure for `CCCc1ccccc1` [propylbenzene] is 48.00 °C.

`Nc1ccccn1` [pyridin-2-amine] gave a flash point of 92.00 °C. `NNC(=O)c1ccncc1` [pyridine-4-carbohydrazide] gave a flash point of 190.00 °C.

In the case of `C=Cc1ccccc1` [styrene], the flash point worked out at 31.00 °C. For `CC(C)(C)c1ccccc1` [tert-butylbenzene], the flash point worked out at 60.00 °C. Take `CCCCCCCCCCCCCC` [tetradecane]: the flash point was found to be 100.00 °C. On to `C[Si](C)(C)C` [tetramethylsilane], for which the flash point was -27.00 °C. To `C1CCSC1` [thiolane] belongs 13.00 °C; to `CCCCOB(OCCCC)OCCCC` [tributyl borate], 93.00 °C. The figure for `Cl[Si](Cl)(Cl)C1CCCCC1` [trichloro(cyclohexyl)silane] is 91.00 °C; for `CCCCCCCCCCCCCCCC[Si](Cl)(Cl)Cl` [trichloro(hexadecyl)silane] it is 146.00 °C; for `CCCCCCCCCCCCCCCCCC[Si](Cl)(Cl)Cl` [trichloro(octadecyl)silane] it is 89.00 °C. To `CCCCC[Si](Cl)(Cl)Cl` [trichloro(pentyl)silane] belongs 63.00 °C; to `C=CC[Si](Cl)(Cl)Cl` [trichloro(prop-2-enyl)silane], 35.00 °C.

`Clc1ccc([Si](Cl)(Cl)Cl)cc1Cl` [trichloro-(3,4-dichlorophenyl)silane] gave a flash point of 141.00 °C.

`ClC(Cl)(Cl)c1ccccc1` [trichloromethylbenzene]: the flash point is 127.00 °C. On to `C1=CC2C3C=CC(C3)C2C1` (stereo not given) [tricyclo[5.2.1.02,6]deca-3,8-diene], for which the flash point stood at 32.00 °C. The compound `C=CCCCCCCCCCCC` [tridec-1-ene] had a flash point of 79.00 °C. The figure for `CCCCCCCCCCCC(C)=O` [tridecan-2-one] is 107.00 °C. For `C[CH2][Al]([CH2]C)[CH2]C` [triethylalumane], the flash point was -53.00 °C. Compound `CCB(CC)CC` [triethylborane] returned a flash point of -36.00 °C. For the compound `O=P(Oc1ccccc1)(Oc1ccccc1)Oc1ccccc1` [triphenyl phosphate], the flash point was 220.00 °C. `c1ccc(P(c2ccccc2)c2ccccc2)cc1` [triphenylphosphane] had a flash point of 180.00 °C. `CC(C)OB(OC(C)C)OC(C)C` [tripropan-2-yl borate] had a flash point of 28.00 °C. In turn, `Cc1ccc(OP(=O)(Oc2ccc(C)cc2C)Oc2ccc(C)cc2C)c(C)c1` [tris(2,4-dimethylphenyl) phosphate] yielded a flash point of 232.00 °C. Consider `O=P(OCCCl)(OCCCl)OCCCl` [tris(2-chloroethyl) phosphate], for which the flash point came to 232.00 °C. For `CCCCC(CC)COP(OCC(CC)CCCC)OCC(CC)CCCC` (stereo not given) [tris(2-ethylhexyl) phosphite], the flash point was 171.00 °C. As for `CC(C)[CH2][Al]([CH2]C(C)C)[CH2]C(C)C` [tris(2-methylpropyl)alumane], the flash point is -23.00 °C. The figure for `Cc1ccc(OP(=O)(Oc2ccc(C)cc2)Oc2ccc(C)cc2)cc1` [tris(4-methylphenyl) phosphate] is 210.00 °C.
